Measurements as given in patent EP0048614B1, “1-N-acylated and 1-N-alkylated derivatives of 4-0-substituted -2-deoxystreptamine aminoglycosides” (ELI LILLY AND COMPANY, priority 1980, dated 1982).
Converted amounts (≈) assume the structure as drawn.

Assays:
[1] = test system: Escherichia coli X563; assay: Standard disc-plate method, zone of inhibition against apramycin-resistant strain; assay type: cell-based; details: apramycin-resistant E. coli X563, one value for each of two test runs per compound
Description: Table III, shown below, illustrates the in vitro activity of 1-N-(S-y-amino-a-hydroxybutyryl)apramycin, 1-N-(RS-y-amino-a-hydroxybutyryl)apramycin, and 1-N-(S-y-amino-a-hydroxybutyryl)nebramine against an apramycin resistant strain of E. coli. The results below were obtained using the standard disc-plate method. The numerical values are the diameters in millimeters of the zones of inhibition observed against this bacterium. Compounds substituted with the y-amino-a-hydroxybutyryl and analogous side chains are useful in treating infections caused by apramycin resistant bacteria such as the one above.
The test organism (E. coli X563) used in the experiments summarized in Table III is resistant to apramycin due to a 3-N-acetyltransferase which enzymatically inactivates apramycin.

[2] = test system: Staphylococcus aureus 3055; assay: Subcutaneous therapy of experimental bacterial infection in mice (ED50); assay type: in vivo; details: Staphylococcus aureus, 3055, sc; mg/kg × 2 subcutaneous doses at 1 and 5 hours post infection; mice challenged with 68.1 LD50's; read-out: Effective Dose (ED50)
Method: Table II illustrates the effective dose (ED50, the effective dose to protect 50 percent of the test animals) for representative compounds of this invention against an experimental bacterial infection in mice.
The ED50 values were determined as described by W. E. Wick et al., Journal of Bacteriology, 81 [No. 2], 233-235 (1961).

[3] = test system: Proteus inconstans PR33; assay: MIC, standard agar dilution test; assay type: cell-based; details: Providencia alcalifaciens; Proteus inconstans PR33; agar dilution; read-out: Minimum Inhibitory Concentration
Description: (§1) The antibacterial activity of the deprotected compounds of this invention is illustrated by the following in vitro and in vivo test data obtained with representative compounds. In Table I, the minimum inhibitory concentration (MIC) for representative compounds against a wide range of gram-positive and gram-negative bacteria is presented. The MIC values were obtained by the standard agar dilution test.

[4] = test system: Enterobacter cloacae 265A; assay: MIC, standard agar dilution test; assay type: cell-based; details: Enterobacter cloacae 265A; agar dilution; read-out: Minimum Inhibitory Concentration
Description: as §1

[5] = test system: Staphylococcus epidermidis EPI2; assay: MIC, standard agar dilution test; assay type: cell-based; details: Staphylococcus epidermidis EPI2; agar dilution; read-out: Minimum Inhibitory Concentration
Description: as §1

[6] = test system: Hemophilus influenzae 76; assay: MIC, standard agar dilution test; assay type: cell-based; details: Haemophilus influenzae, Hemophilus influenzae 76, read-out: Minimum Inhibitory Concentration
Description: as §1

[7] = test system: Salmonella typhimurium 1335; assay: MIC, standard agar dilution test; assay type: cell-based; details: Salmonella enterica; Salmonella typhimurium 1335; agar dilution; read-out: Minimum Inhibitory Concentration
Description: as §1

[8] = test system: Proteus rettgeri C24; assay: MIC, standard agar dilution test; assay type: cell-based; details: Providencia rettgeri; Proteus rettgeri C24; agar dilution; read-out: Minimum Inhibitory Concentration
Description: as §1

[9] = test system: Escherichia coli TEM; assay: MIC, standard agar dilution test; assay type: cell-based; details: read-out: Minimum Inhibitory Concentration
Description: as §1

[10] = test system: Escherichia coli EC14; assay: MIC, standard agar dilution test; assay type: cell-based; details: Escherichia coli EC14; agar dilution; read-out: Minimum Inhibitory Concentration
Description: as §1

[11] = test system: Staphylococcus aureus X400; assay: MIC, standard agar dilution test; assay type: cell-based; details: Staphylococcus aureus X400, read-out: Minimum Inhibitory Concentration
Description: as §1

[12] = test system: Staphylococcus aureus S13E; assay: MIC, standard agar dilution test; assay type: cell-based; details: read-out: Minimum Inhibitory Concentration
Description: as §1

[13] = test system: Escherichia coli N10; assay: MIC, standard agar dilution test; assay type: cell-based; details: Escherichia coli, N10, Escherichia coli N10; agar dilution; read-out: Minimum Inhibitory Concentration
Description: as §1

[14] = test system: Shigella sonnei N9; assay: MIC, standard agar dilution test; assay type: cell-based; details: read-out: Minimum Inhibitory Concentration
Description: as §1

[15] = test system: Staphylococcus aureus V41; assay: MIC, standard agar dilution test; assay type: cell-based; details: Staphylococcus aureus V41; agar dilution; read-out: Minimum Inhibitory Concentration
Description: as §1

[16] = test system: Streptococcus pneumoniae Park I; assay: MIC, standard agar dilution test; assay type: cell-based; details: Streptococcus pneumoniae; read-out: Minimum Inhibitory Concentration
Description: as §1

[17] = test system: Citrobacter freundii CF17; assay: MIC, standard agar dilution test; assay type: cell-based; details: Citrobacter freundii CF17; agar dilution; read-out: Minimum Inhibitory Concentration
Description: as §1

[18] = test system: Enterobacter cloacae EB5; assay: MIC, standard agar dilution test; assay type: cell-based; details: Enterobacter cloacae EB5; agar dilution; read-out: Minimum Inhibitory Concentration
Description: as §1

[19] = test system: Streptococcus group D X66; assay: MIC, standard agar dilution test; assay type: cell-based; details: DX66; Streptococcus group D X66; agar dilution; read-out: Minimum Inhibitory Concentration
Description: as §1

[20] = test system: Streptococcus group D 9960; assay: MIC, standard agar dilution test; assay type: cell-based; details: D9960; Streptococcus group D 9960; agar dilution; read-out: Minimum Inhibitory Concentration
Description: as §1

[21] = test system: Pseudomonas aeruginosa X239; assay: MIC, standard agar dilution test; assay type: cell-based; details: Pseudomonas aeruginosa X239; agar dilution; read-out: Minimum Inhibitory Concentration
Description: as §1

[22] = test system: Hemophilus influenzae C.L.; assay: MIC, standard agar dilution test; assay type: cell-based; details: Haemophilus influenzae, Hemophilus influenzae C.L., read-out: Minimum Inhibitory Concentration
Description: as §1

[23] = test system: Pseudomonas aeruginosa Ps18; assay: MIC, standard agar dilution test; assay type: cell-based; details: Pseudomonas aeruginosa Ps18; agar dilution; read-out: Minimum Inhibitory Concentration
Description: as §1

[24] = test system: Proteus rettgeri PR7; assay: MIC, standard agar dilution test; assay type: cell-based; details: Providencia rettgeri, Proteus rettgeri PR7, read-out: Minimum Inhibitory Concentration
Description: as §1

[25] = test system: Staphylococcus aureus X1.1; assay: MIC, standard agar dilution test; assay type: cell-based; details: Staphylococcus aureus X1.1; agar dilution; read-out: Minimum Inhibitory Concentration
Description: as §1

[26] = test system: Klebsiella pneumoniae KAE; assay: MIC, standard agar dilution test; assay type: cell-based; details: Klebsiella pneumoniae KAE; agar dilution; read-out: Minimum Inhibitory Concentration
Description: as §1

[27] = test system: Enterobacter aerogenes X68; assay: MIC, standard agar dilution test; assay type: cell-based; details: Klebsiella aerogenes, Enterobacter aerogenes X68, read-out: Minimum Inhibitory Concentration
Description: as §1

[28] = test system: Enterobacter aerogenes EB17; assay: MIC, standard agar dilution test; assay type: cell-based; details: Klebsiella aerogenes; Enterobacter aerogenes EB17; agar dilution; read-out: Minimum Inhibitory Concentration
Description: as §1

[29] = test system: Klebsiella pneumoniae X26; assay: MIC, standard agar dilution test; assay type: cell-based; details: Klebsiella pneumoniae X26; agar dilution; read-out: Minimum Inhibitory Concentration
Description: as §1

[30] = test system: Proteus morganii PR15; assay: MIC, standard agar dilution test; assay type: cell-based; details: Morganella morganii; Proteus morganii PR15; agar dilution; read-out: Minimum Inhibitory Concentration
Description: as §1

[31] = test system: Serratia marcescens SE3; assay: MIC, standard agar dilution test; assay type: cell-based; details: Serratia marcescens SE3; agar dilution; read-out: Minimum Inhibitory Concentration
Description: as §1

[32] = test system: Enterobacter aerogenes C32; assay: MIC, standard agar dilution test; assay type: cell-based; details: Klebsiella aerogenes; Enterobacter aerogenes C32; agar dilution; read-out: Minimum Inhibitory Concentration
Description: as §1

[33] = test system: Pseudomonas aeruginosa X528; assay: MIC, standard agar dilution test; assay type: cell-based; details: Pseudomonas aeruginosa X528; agar dilution; read-out: Minimum Inhibitory Concentration
Description: as §1

[34] = test system: Staphylococcus epidermidis EPI1; assay: MIC, standard agar dilution test; assay type: cell-based; details: Staphylococcus epidermidis, EPI1; read-out: Minimum Inhibitory Concentration
Description: as §1

[35] = test system: Serratia marcescens X99; assay: MIC, standard agar dilution test; assay type: cell-based; details: Serratia marcescens X99, read-out: Minimum Inhibitory Concentration
Description: as §1

[36] = test system: Bordetella bronchiseptica 16; assay: MIC, standard agar dilution test; assay type: cell-based; details: Bordetella bronchiseptica 16; agar dilution; read-out: Minimum Inhibitory Concentration
Description: as §1

[37] = test system: Salmonella heidelberg X514; assay: MIC, standard agar dilution test; assay type: cell-based; details: Salmonella enterica; Salmonella heidelberg X514; agar dilution; read-out: Minimum Inhibitory Concentration
Description: as §1

[38] = test system: Streptococcus pyogenes C203; assay: MIC, standard agar dilution test; assay type: cell-based; details: Streptococcus pyogenes C203; agar dilution; read-out: Minimum Inhibitory Concentration
Description: as §1

In the case of `CCNC1CC(N)C(OC2OC3C(CC2N)OC(OC2OC(CO)C(N)C(O)C2O)C(NC)C3O)C(O)C1O` (stereo not drawn) [Test Compound 4, 1-N-ethylapramycin], the “Zone of Inhibition (diameter in mm)” value ([1]; 15 mcg/disc, listed as 5) is reported as 12.1 mm, the zone of inhibition at 15 µg/disc ([1]; Escherichia coli, X563, read-out: Zone of Inhibition (diameter in mm), 15 mcg/disc) is reported as 11.3 mm and the ED50 [2] is reported as 4.5 mg/kg. It also gave an MIC [3] of 128 µg/mL (≈ 225 µM), an MIC [4] of 32 µg/mL (≈ 56.4 µM) and an MIC [5] of 4 µg/mL (≈ 7.05 µM). For the same molecule, the MIC [6] was 16 µg/mL (≈ 28.2 µM), the MIC [7] was 32 µg/mL (≈ 56.4 µM) and the MIC [8] was 64 µg/mL (≈ 113 µM). It also gave an MIC [9] of 8 µg/mL (≈ 14.1 µM), an MIC [10] of 32 µg/mL (≈ 56.4 µM) and an MIC [11] of 16 µg/mL (≈ 28.2 µM). It also gave an MIC [12] of 8 µg/mL (≈ 14.1 µM), an MIC [13] of 16 µg/mL (≈ 28.2 µM) and an MIC [14] of 16 µg/mL (≈ 28.2 µM). It also gave an MIC [15] of 8 µg/mL (≈ 14.1 µM), an MIC [16] of 16 µg/mL (≈ 28.2 µM) and an MIC [17] of 16 µg/mL (≈ 28.2 µM). For the same molecule, the MIC [18] was 32 µg/mL (≈ 56.4 µM), the MIC [19] was over 128 µg/mL and the MIC [20] was over 128 µg/mL. It also gave an MIC [21] of 8 µg/mL (≈ 14.1 µM), an MIC [22] of 16 µg/mL (≈ 28.2 µM) and an MIC [23] of 32 µg/mL (≈ 56.4 µM). The MIC [24] was 8 µg/mL (≈ 14.1 µM), the MIC [25] was 8 µg/mL (≈ 14.1 µM) and the MIC [26] was 16 µg/mL (≈ 28.2 µM). The MIC [27] was 16 µg/mL (≈ 28.2 µM), the MIC [28] was 16 µg/mL (≈ 28.2 µM) and the MIC [29] was 8 µg/mL (≈ 14.1 µM). For the same molecule, the MIC [30] was 32 µg/mL (≈ 56.4 µM), the MIC [31] was over 128 µg/mL and the MIC [32] was 8 µg/mL (≈ 14.1 µM). The MIC [33] was 16 µg/mL (≈ 28.2 µM), the MIC [34] was 8 µg/mL (≈ 14.1 µM) and the MIC [35] was 64 µg/mL (≈ 113 µM). It also gave an MIC [36] of 64 µg/mL (≈ 113 µM), an MIC [37] of 32 µg/mL (≈ 56.4 µM) and an MIC [38] of 16 µg/mL (≈ 28.2 µM).
